Measurements taken from patent publication US20020146823A1, “Method for promoting hematopoietic and mesenchymal cell proliferation and differentiation” (The University of Southern California, priority 1997, published 2002).

Legend:
[1] = tested on: enriched HPC from C57B1/6 mice; assay: Murine HPC colony formation in semi-solid culture; assay type: cell-based
Method: HPC were harvested from C57B1/6 mice by immunomagnetic affinity chromatography and placed in semi-solid cultures with optimal growth medium. At various times after initiation of culture, the formation of colonies and the size of the colonies (number of cells/colony) were assessed microscopically.
Female C57B1/6 mice were purchased from Simonson and used as a source of bone marrow cells in this study. The bone marrow was harvested, either from untreated mice or from mice injected with 5-fluorouracil (5-FU) (3 mg/mouse; approximately 150 mg/kg) in the tail vein 48 hours before harvest, from the femur and tibia of mice by flushing with phosphate buffered saline (PBS), pH 7.4, containing 2% fetal bovine serum (FBS) with a 21-gauge needle. The eluant from the flushing was centrifuged and the pellet was resuspended at 4×10^7 nucleated cells/ml in PBS containing PBS containing 2% FBS and 5% normal rat serum.
The reagents for immunomagnetic labeling were purchased from Stem Cell Technologies, Inc. (Vancouver, BC). […]

rat bone marrow MSC = assay: Alkaline phosphatase expression by MSC in osteogenic medium; assay type: cell-based, Sprague Dawley rats; conditions: osteogenic medium 4 days
Method: Bone marrow from female Sprague Dawley rats were harvested by flushing the femur with medium. The cells were placed in culture dishes […], allowed to adhere overnight, and then placed in DMEM-LG medium containing antibiotics and 10% fetal calf serum together with varying concentrations of AII. At various times after culture initiation, the cells were washed with Tyrode's buffer and placed in osteogenic medium (DMEM-LG containing 10% fetal calf serum, 100 nM dexamethasone and 0.05 mM ascorbic acid) for 4 days prior to assessment of the level of alkaline phosphatase activity per well. Briefly, the wells were washed with Tyrode's buffer and 1 ml alkaline phosphatase substrate solution (50 mM glycine, pH 10.5, containing 1 mM magnesium chloride and 2.5 mM p-nitrophenyl phosphate) to each well. Fifteen minutes after addition of this aqueous substrate, the buffer was removed from the culture and mixed with 1 ml of 1N sodium hydroxide to stop the reaction. The absorbance of the resultant mixture at […] was then determined via spectroscopy. The level of alkaline phosphatase activity is expressed as the level of absorbance per culture dish.

[2] = tested on: murine peritoneal macrophages; assay: Respiratory burst (hydrogen peroxide generation) in murine peritoneal macrophages; assay type: cell-based; conditions: alone and in response to PMA; 4 hours exposure
Method: The respiratory burst of leukocytes (macrophages and polymorphonuclear neutrophils) is one component of the mediator system used to kill bacteria. As with phagocytosis, the level of this respiratory burst activity in resident macrophages is low. […] Studies were conducted to assess the effect of in vitro exposure of murine or rat peritoneal macrophages and human peripheral blood mononuclear cells (PBMC) to various concentrations of AII on the capacity to generate hydrogen peroxide via the respiratory burst system. For the human studies, five different donors were examined.
The murine or rat peritoneal cells were harvested by lavage with 5-15 ml of cold PBS with 0.5% bovine serum albumin. The human PBMC were harvested by venipuncture from normal human volunteers and isolated from peripheral blood by Ficoll Hypaque density centrifugation. After isolation, the cells were resuspended at 1×10^6 cells/ml and placed at 100 μl per well into 96 well plates. The cells were incubated with various concentrations of AII or AII analogues and fragments for 4 hours at 37° C. The cells were then preloaded with a fluorescent probe for hydrogen peroxide, 2,7 dichlorofluorescein acetate, which is nonfluorescent in the absence of hydrogen peroxide. […] One hour after stimulation the level of fluorescence produced was measured on a Cytofluor 2350 multiwell fluorometer.

For “Asp-Arg-Val-Tyr-Ile-His-Pro-Phe (DRVYIHPF; printed: Asp-Arg-Val-Tyr-Ile-His-Pro-Phe) [AII, octapeptide present in humans and other species; known pressor agent, commercially available]”, which HPC colony size ([1]; 0 to 100 μg/ml, normal and 5-FU treated) is on record?
Its HPC colony size is “increases proportionately with exposure to increased concentrations of AII”.

What about the macroscopic colonies ([1]; day 14, enriched HPC from untreated (normal) mice, 100 μg/ml) of the same substance?
Its macroscopic colonies is 100.

What about the “proliferation of cells that express alkaline phosphatase” value (rat bone marrow MSC) of the same substance?
Its value is “can accelerate the proliferation of cells that express alkaline phosphatase”.

And the “ability of leukocytes to generate hydrogen peroxide” value [2]?
Its value is “increased the ability of leukocytes to generate hydrogen peroxide both alone and in response to stimulation with PMA”.
